Data from ChEMBL document CHEMBL5104091, “Pyridazine as a privileged structure: An updated review on anticancer activity of pyridazine containing bioactive molecules” (Eur J Med Chem, 2021).
In brackets after ≈: the same amount, converted by molar mass. Blank lines part the entries; values can stand above or below the compound they belong to.

Legend:
[1] = molecular target: T1, Poly [ADP-ribose] polymerase 1 (Homo sapiens, UniProt P09874); experiment: Inhibition of PARP1 (unknown origin) by colorimetric assay
T1 sequence (P09874 whole entry): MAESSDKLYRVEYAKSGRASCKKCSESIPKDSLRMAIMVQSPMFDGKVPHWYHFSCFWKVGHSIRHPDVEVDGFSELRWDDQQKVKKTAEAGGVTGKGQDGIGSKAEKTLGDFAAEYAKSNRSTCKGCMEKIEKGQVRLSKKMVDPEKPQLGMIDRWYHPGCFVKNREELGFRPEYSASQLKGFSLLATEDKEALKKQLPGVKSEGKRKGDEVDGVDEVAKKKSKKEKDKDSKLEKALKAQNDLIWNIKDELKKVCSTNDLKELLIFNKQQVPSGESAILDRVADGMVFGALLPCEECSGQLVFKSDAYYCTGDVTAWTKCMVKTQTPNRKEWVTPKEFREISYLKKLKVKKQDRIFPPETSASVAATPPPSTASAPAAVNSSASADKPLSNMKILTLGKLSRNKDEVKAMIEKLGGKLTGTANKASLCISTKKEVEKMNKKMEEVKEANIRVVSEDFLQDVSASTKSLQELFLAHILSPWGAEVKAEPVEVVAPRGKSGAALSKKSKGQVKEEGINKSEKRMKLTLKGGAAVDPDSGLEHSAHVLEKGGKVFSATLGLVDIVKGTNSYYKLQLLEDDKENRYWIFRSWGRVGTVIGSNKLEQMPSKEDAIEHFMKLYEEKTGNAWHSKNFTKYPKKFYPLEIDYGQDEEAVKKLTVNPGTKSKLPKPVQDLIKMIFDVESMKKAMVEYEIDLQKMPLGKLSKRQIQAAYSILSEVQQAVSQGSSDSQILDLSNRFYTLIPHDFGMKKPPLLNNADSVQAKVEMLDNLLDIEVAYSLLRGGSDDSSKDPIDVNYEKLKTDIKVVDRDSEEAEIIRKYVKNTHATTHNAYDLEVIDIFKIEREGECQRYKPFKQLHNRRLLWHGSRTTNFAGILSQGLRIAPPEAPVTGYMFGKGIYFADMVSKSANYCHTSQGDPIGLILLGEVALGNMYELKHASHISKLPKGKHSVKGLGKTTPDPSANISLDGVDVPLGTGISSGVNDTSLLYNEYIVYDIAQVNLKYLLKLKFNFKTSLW

[2] = test system: MDA-MB-231; experiment: Antiproliferative activity against human MDA-MB-231 cells assessed as cell growth inhibition measured after 48 hrs by WST-1 assay; type: functional, cell-based; details: MDA-MB-231, 48 h
[3] = test system: P815; experiment: Cytotoxicity against mouse P815 cells assessed as cell growth inhibition measured after 48 hrs by MTT assay; type: functional, cell-based; details: P815, 48 h
[4] = test system: MCF7; experiment: Cytotoxicity against human MCF7 cells assessed as cell growth inhibition measured after 48 hrs by MTT assay; type: functional, cell-based; details: MCF7, 48 h
[5] = test system: PC-3; experiment: Cytotoxicity against human PC-3 cells assessed as cell growth inhibition by MTT assay; type: functional, cell-based
[6] = molecular target: T2, Vascular endothelial growth factor receptor 2 (Homo sapiens, UniProt P35968); experiment: Inhibition of VEGFR2 (unknown origin) using poly (Glu,Tyr) 4:1 as substrate measured after 5 mins in presence of ATP by ELISA method
T2 sequence (P35968 whole entry): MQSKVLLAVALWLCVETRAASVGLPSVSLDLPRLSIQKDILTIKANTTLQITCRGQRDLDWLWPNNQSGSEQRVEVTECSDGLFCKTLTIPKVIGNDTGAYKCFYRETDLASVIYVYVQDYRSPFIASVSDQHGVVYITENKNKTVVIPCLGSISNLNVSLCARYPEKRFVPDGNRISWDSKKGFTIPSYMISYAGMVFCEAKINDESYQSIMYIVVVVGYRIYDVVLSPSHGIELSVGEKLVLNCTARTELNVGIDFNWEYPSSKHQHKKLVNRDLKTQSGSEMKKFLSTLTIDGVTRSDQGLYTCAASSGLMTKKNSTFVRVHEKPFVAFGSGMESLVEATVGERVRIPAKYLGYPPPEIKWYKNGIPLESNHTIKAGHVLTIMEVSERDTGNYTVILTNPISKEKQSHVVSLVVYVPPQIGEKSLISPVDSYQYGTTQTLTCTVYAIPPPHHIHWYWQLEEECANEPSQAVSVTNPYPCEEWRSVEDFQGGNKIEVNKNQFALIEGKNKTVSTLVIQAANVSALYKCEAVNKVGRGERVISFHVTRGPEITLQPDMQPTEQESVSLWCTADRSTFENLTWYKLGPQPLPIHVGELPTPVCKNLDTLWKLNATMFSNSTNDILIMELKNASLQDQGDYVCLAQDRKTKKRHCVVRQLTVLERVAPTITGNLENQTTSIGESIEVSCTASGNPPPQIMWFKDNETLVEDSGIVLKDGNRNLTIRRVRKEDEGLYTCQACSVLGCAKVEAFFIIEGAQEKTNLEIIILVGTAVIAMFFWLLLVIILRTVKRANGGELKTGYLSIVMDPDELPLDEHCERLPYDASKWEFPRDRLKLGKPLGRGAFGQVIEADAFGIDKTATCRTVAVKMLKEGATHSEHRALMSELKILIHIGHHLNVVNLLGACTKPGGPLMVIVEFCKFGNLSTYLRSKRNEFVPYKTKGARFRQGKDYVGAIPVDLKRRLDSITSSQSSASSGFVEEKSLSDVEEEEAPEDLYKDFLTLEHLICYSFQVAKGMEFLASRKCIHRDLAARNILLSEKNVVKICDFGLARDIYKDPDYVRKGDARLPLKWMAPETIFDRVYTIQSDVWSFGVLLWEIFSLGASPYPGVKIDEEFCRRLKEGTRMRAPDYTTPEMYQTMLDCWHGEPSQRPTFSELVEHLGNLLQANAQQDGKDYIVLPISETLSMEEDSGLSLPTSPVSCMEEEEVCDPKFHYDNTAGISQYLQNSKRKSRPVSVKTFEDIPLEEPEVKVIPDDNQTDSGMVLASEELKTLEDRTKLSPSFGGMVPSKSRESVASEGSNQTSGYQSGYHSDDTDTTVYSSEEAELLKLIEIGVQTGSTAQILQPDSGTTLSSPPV

[7] = molecular target: T1, Poly [ADP-ribose] polymerase 1; experiment: Displacement of [125I]KX1 from PARP1 in human OVCAR-8 cells incubated for 1 hr by wizard gamma counter analysis; type: cell-based
[8] = test system: MCF7; experiment: Antiproliferative activity against human MCF7 cells assessed as cell growth inhibition incubated for 48 hrs by MTT assay; type: functional, cell-based; details: MCF7, 48 h
[9] = test system: HepG2; experiment: Antiproliferative activity against human HepG2 cells assessed as cell growth inhibition incubated for 48 hrs by MTT assay; type: functional, cell-based; details: HepG2, 48 h
[10] = test system: MCF-12A; experiment: Antiproliferative activity against human MCF-12A cells assessed as cell growth inhibition; type: functional, cell-based
[11] = Inhibition of tyrosine kinase (unknown origin); parameters: species or system Homo sapiens
[12] = test system: MCF7; experiment: Antiproliferative activity against human MCF7 cells assessed as cell growth inhibition; type: functional, cell-based
[13] = test system: KB; experiment: Cytotoxicity against human KB cells assessed as cell growth inhibition; type: functional, cell-based
[14] = test system: SK-MEL; experiment: Cytotoxicity against human SK-MEL cells assessed as cell growth inhibition; type: functional, cell-based
[15] = test system: HCT-116; experiment: Cytotoxicity against human HCT-116 cells assessed as cell growth inhibition measured after 72 hrs by MTT assay; type: functional, cell-based; details: HCT-116, 72 h
[16] = test system: MCF7; experiment: Cytotoxicity against human MCF7 cells assessed as cell growth inhibition measured after 72 hrs by MTT assay; type: functional, cell-based; details: MCF7, 72 h
[17] = molecular target: Hepatocyte growth factor receptor (Homo sapiens, UniProt P08581); experiment: Inhibition of human recombinant c-MET in presence of ATP by HTRF assay
Hepatocyte growth factor receptor, sequence (P08581 whole entry): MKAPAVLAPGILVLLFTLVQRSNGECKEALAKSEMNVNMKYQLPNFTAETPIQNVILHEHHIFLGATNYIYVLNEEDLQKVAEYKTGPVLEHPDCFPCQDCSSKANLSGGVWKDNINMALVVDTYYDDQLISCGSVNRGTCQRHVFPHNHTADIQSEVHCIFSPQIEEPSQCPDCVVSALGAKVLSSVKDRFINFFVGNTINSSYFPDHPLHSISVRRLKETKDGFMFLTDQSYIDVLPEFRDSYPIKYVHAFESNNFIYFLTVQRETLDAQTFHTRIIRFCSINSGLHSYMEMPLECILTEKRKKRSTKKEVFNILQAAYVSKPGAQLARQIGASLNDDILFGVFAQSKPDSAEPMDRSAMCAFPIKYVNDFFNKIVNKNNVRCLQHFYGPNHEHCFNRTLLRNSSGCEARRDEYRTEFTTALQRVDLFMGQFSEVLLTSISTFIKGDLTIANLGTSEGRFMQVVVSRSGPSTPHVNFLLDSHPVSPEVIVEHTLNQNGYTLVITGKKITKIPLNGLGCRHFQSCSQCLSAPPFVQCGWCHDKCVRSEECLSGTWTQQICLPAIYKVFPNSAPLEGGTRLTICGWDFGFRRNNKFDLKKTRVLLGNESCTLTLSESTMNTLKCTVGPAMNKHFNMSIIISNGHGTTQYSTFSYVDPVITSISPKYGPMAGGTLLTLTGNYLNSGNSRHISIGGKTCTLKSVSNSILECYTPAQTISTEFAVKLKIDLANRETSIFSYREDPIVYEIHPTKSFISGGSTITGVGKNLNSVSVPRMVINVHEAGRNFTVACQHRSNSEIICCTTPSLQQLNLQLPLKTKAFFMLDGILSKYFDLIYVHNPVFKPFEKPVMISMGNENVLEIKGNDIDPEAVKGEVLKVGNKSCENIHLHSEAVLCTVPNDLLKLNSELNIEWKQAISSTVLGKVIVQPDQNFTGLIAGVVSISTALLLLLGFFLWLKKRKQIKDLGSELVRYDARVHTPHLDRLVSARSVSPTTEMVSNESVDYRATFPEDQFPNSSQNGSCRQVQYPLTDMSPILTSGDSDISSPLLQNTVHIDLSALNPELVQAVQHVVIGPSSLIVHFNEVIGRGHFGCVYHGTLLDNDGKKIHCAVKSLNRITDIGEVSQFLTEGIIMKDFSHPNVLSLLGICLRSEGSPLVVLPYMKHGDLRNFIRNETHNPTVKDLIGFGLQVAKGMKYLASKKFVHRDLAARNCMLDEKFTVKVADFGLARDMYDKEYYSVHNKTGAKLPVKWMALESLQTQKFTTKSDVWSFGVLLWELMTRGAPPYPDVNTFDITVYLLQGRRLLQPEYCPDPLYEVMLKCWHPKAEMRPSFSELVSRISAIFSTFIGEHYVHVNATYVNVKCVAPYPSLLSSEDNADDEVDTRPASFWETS

[18] = test system: ECa-109 cell line; experiment: Antiproliferative activity against human EC109 cells assessed as inhibition of cell growth; type: functional, cell-based; details: read-out: IC50
[19] = molecular target: Vascular endothelial growth factor receptor 3 (Homo sapiens) (UniProt P35916); experiment: Inhibition of VEGFR3 (unknown origin) at 10 uM by ELISA relative to control
Vascular endothelial growth factor receptor 3 (Homo sapiens), sequence (P35916 whole entry): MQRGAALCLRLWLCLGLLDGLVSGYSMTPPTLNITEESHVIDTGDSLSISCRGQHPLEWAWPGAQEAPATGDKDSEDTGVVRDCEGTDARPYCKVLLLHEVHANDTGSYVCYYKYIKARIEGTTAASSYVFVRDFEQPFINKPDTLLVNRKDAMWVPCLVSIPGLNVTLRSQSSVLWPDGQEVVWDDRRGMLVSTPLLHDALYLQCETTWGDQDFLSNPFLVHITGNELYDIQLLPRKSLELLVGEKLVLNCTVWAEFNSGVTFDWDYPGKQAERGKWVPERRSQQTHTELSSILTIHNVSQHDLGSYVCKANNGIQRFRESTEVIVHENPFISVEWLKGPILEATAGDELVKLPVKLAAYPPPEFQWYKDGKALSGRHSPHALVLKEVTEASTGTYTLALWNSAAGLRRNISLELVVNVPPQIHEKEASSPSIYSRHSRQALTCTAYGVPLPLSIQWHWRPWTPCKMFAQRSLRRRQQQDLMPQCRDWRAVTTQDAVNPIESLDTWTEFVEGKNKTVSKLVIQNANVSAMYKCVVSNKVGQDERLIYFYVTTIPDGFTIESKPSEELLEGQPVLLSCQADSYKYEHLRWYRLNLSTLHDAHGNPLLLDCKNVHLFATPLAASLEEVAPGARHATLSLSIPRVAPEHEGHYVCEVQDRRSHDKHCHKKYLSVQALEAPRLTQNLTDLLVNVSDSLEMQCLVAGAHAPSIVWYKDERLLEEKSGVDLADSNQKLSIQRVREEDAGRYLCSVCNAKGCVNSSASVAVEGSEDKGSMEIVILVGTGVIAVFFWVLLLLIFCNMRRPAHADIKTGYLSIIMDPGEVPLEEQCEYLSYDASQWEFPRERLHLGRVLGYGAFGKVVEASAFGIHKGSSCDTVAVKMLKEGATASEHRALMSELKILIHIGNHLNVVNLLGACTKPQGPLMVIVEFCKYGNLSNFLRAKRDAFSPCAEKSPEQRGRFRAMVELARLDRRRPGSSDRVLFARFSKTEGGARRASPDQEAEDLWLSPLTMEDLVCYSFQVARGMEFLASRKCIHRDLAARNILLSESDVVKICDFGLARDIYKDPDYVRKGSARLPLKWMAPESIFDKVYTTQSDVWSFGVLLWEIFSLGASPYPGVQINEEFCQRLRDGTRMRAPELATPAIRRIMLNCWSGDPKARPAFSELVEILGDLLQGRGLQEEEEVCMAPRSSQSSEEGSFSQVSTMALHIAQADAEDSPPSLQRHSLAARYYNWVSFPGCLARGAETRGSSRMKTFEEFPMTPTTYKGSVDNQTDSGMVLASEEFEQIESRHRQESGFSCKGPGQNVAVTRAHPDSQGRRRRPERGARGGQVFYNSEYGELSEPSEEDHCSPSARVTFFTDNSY

[20] = test system: HCT-116; experiment: Cytotoxicity against human HCT-116 cells assessed as cell growth inhibition measured after 48 hrs by SRB assay; type: functional, cell-based; details: HCT-116, 48 h
[21] = In vivo inhibition of VEGFR2 in Swiss albino mouse implanted with mouse Ehrlich cells incubated for 24 hrs by immunohistochemical staining based analysis relative to control; type: functional
[22] = test system: Hs746T; experiment: Antiproliferative activity against human Hs746T cells assessed as cell growth inhibition measured after 72 hrs by WST-1 assay; type: functional, cell-based
[23] = test system: MDA-MB-468; experiment: Cytotoxicity against human MDA-MB-468 cells assessed as cell growth reduction measured after 48 hrs by MTT assay; type: functional, cell-based; details: MDA-MB-468, 48 h
[24] = test system: MCF7; experiment: Antiproliferative activity against human MCF7 assessed as cell growth inhibition measured after 72 hrs by CCK-8 assay; type: functional, cell-based; details: MCF7, 72 h
[25] = test system: Hep 3B2; experiment: Induction of apoptosis in human Hep3B cells assessed as early apoptotic cells incubated for 24 hrs by annexin-V/FITC and propidium iodide staining based flow cytometry analysis; type: functional
[26] = test system: MCF7; experiment: Induction of apoptosis in human MCF7 cells assessed as early apoptotic cells incubated for 24 hrs by annexin-V/FITC and propidium iodide staining based flow cytometry analysis; type: functional
[27] = test system: Hep 3B2; experiment: Antiproliferative activity against human Hep3B assessed as cell growth inhibition measured after 72 hrs by CCK-8 assay; type: functional, cell-based
[28] = test system: HepG2; experiment: Cytotoxicity against human HepG2 cells assessed as cell growth inhibition after 48 hrs by SRB assay; type: functional, cell-based; details: HepG2, 48 h
[29] = test system: A549; experiment: Potency index, ratio of Sorafenib IC50 to compound IC50 for antiproliferative activity against human A549 cells assessed as cell growth inhibition measured after 48 hrs by MTT assay; type: functional
[30] = test system: A549; experiment: Antiproliferative activity against human A549 cells assessed as cell growth inhibition measured after 48 hrs by MTT assay; type: functional, cell-based; details: A549, 48 h
[31] = molecular target: T2, Vascular endothelial growth factor receptor 2; experiment: Inhibition of VEGFR2 (unknown origin) using ULight-4E-BP1 peptide as substrate incubated for 1 hr in presence of ATP by fluorescence based analysis

IC50 [1]: 0.0367 µM
Structure (SMILES): O=C(c1ccc(Cc2n[nH]c(=O)c3cccnc23)cc1)N1CCCC1

IC50 [2]: 12 µM
Structure (SMILES): O=C1Nc2ccc(Br)cc2/C1=N/Nc1nnc(-c2ccc(Cl)cc2)c2ccccc12

Structure (SMILES): Cc1ccc2oc(Cc3cc(=O)[nH]nc3C)cc2c1
IC50 [3]: 35 µM
IC50 [4]: 14.5 µM

IC50 [2]: 12 µM
Structure (SMILES): O=C1Nc2ccc(F)cc2/C1=N/Nc1nnc(-c2ccc(Cl)cc2)c2ccccc12

Structure (SMILES): Sc1nnc(-c2ccc(Oc3ccccc3)cc2)c2ccccc12
IC50 [5]: 9.22 µg/mL (≈ 27.9 µM)

IC50 [6]: 0.31 µM
Structure (SMILES): O=C(NNc1nn2cnnc2c2ccccc12)Nc1ccccc1

IC50 [2]: 12 µM
Structure (SMILES): O=C1Nc2ccccc2/C1=N/Nc1nnc(-c2ccc(Cl)cc2)c2ccccc12

Structure (SMILES): COC1CCN(C(=O)c2cc(Cc3n[nH]c(=O)c4ccccc34)ccc2F)CC1 [AZD2461]
IC50 [7]: 0.0028 µM

IC50 [8]: > 37 µM
IC50 [9]: 26.4 µM
Structure (SMILES): COc1ccc(-c2cc(Cc3ccccc3O)c(=O)[nH]n2)cc1

IC50 [11]: 0.55 µM
IC50 [12]: 0.18 µM
Structure (SMILES): Cc1cccc(NC(=S)NNC(=O)c2nnc3ccc(C)cc3c2N)c1
IC50 [10]: 48.7 µM

Structure (SMILES): O=c1c(CNc2ccccc2)cc(-c2ccccc2CO)nn1Cc1ccccc1
IC50 [13]: 2.3 µM
IC50 [14]: 4.2 µM

IC50 [11]: 0.34 µM
IC50 [12]: 0.11 µM
Structure (SMILES): Cc1ccc2nnc(C(=O)NNC(N)=S)c(N)c2c1
IC50 [10]: 64.2 µM

IC50 [6]: 0.11 µM
Structure (SMILES): O=C(NNc1nn2cnnc2c2ccccc12)NC1CCCCC1
IC50 [15]: 6.04 µM
IC50 [16]: 8.8 µM

IC50 [17]: 0.019 µM
Structure (SMILES): Cn1cc(-c2ccc(=O)n(CC3CN(c4ncc(OCC5CCNCC5)cn4)CCO3)n2)cn1 (configuration not stated)

Structure (SMILES): COc1ccc(NC(=O)CSc2nnc(-c3ccccc3)c3ccccc23)cc1
IC50 [18]: 8.13 µM

IC50 [7]: 0.0047 µM
Structure (SMILES): COC1CCCN(C(=O)c2cc(Cc3n[nH]c(=O)c4ccccc34)ccc2F)CC1 (configuration not stated)

IC50 [2]: 12 µM
Structure (SMILES): O=C1Nc2ccc(F)cc2/C1=N/Nc1nnc(-c2ccccc2)c2ccccc12

inhibition [19]: 89.6%
Structure (SMILES): C=CCNC(=S)Nc1cccc(Nc2ccc(Nc3ccc(S(=O)(=O)NC(=N)N)cc3)nn2)c1
IC50 [20]: 30.3 µM
inhibition (INH) [21]: 40%

IC50 [17]: 0.035 µM
Structure (SMILES): O=c1ccc(-c2cccnc2)nn1CC1CN(c2ncc(-c3cnn(C4CCNCC4)c3)cn2)CCO1 (configuration not stated)
IC50 [22]: 1.9 µM

IC50 [7]: 0.0042 µM
Structure (SMILES): COC1CCN(C(=O)c2cc(Cc3n[nH]c(=O)c4ccccc34)ccc2F)C1 (configuration not stated)

Structure (SMILES): Cc1n[nH]c(=S)cc1Cc1cc2cc(Cl)ccc2o1
IC50 [23]: 11.5 µM

Structure (SMILES): C=CC[Se]c1ccc(S(=O)(=O)CCC)nn1
IC50 [24]: 33.8 µM
Activity [25]: 5.46%
Activity [26]: 9.28%
IC50 [27]: 30.7 µM

Structure (SMILES): O=C(Cn1nc(Cc2ccccc2)c2ccccc2c1=O)NNC(=S)Nc1ccccc1
IC50 [28]: 7.09 µg/mL (≈ 16 µM)

Structure (SMILES): Cc1n[nH]c(=O)cc1Cc1cc2cc(Cl)cc(Br)c2o1
IC50 [23]: 3.1 µM

IC50 [2]: 12 µM
Structure (SMILES): O=C1Nc2ccc(Br)cc2/C1=N/Nc1nnc(-c2ccccc2)c2ccccc12

IC50 [30]: 0.37 µM
IC50 [31]: 0.00012 µM
Structure (SMILES): CNC(=O)c1cc(Oc2ccc(NC(=O)c3nn(-c4ccc(Cl)cc4)cc(C)c3=O)cc2)ccn1
Ratio IC50 [29]: 3.4

IC50 [8]: > 37 µM
IC50 [9]: 14.8 µM
Structure (SMILES): COc1ccc(-c2cc(Cc3ccc(Cl)cc3)c(=O)[nH]n2)cc1

inhibition [19]: 89.6%
Structure (SMILES): Cc1ccc(NC(=O)c2ccc(CN3CCN(C)CC3)cc2)cc1Nc1nccc(-c2cccnc2)n1 [IMATINIB]
inhibition (INH) [21]: 30%
